The source of these data is patent publication US8354447B2, “mGLU receptors antagonists for treating disorders associated with mGLU receptors including addiction and depression” (The Scripps Research Institute, priority 2002, dated 2013).

The structures appear in SMILES notation. Where a name gives a salt, the structure may show the parent alone. Read-outs that look alike come from different tables or passages of the source.

The test system of test [1] is male Wistar rats. As to the kind of experiment: ICSS thresholds during and after withdrawal from chronic nicotine, bupropion. The class given is in vivo, rat. The source says:
Trials began with an electrical stimulus followed by a 7.5-s response window within which the animal could make a response to receive a second contingent stimulus identical to the initial noncontingent stimulus. A response during this 7.5-s window was considered a positive response, whereas the lack of a response was considered a negative response. Additional responses during a 2-s period immediately following a positive response had no consequence. The intertrial interval (ITI) that followed either a positive response or the end of the response window (in the case of a negative response) ranged from 7.5 to 12.5 s with an average duration of 10 s. […] Subjects then were tested on a current-threshold procedure in which stimulus intensities were varied during four alternating descending and ascending series with a step size of […]. Blocks of three trials were offered at each current step with the starting current of the first descending series set at […] above the subjects' individual baseline thresholds estimated at the end of preliminary training. […] An ascending series was terminated after two consecutive blocks of trials during which the animal made positive responses on at least two out of the three trials or after 15 successive increments were presented. The mean of the four current thresholds from the alternating series was defined as the subject's ICSS threshold for that session. A series was terminated after either 15 stimulus increments (or decrements) had occurred, or after the determination of the threshold for the series (see below). Each test session typically lasted 30 min.
Naive animals were prepared with osmotic minipumps containing either an individualized nicotine solution (3.16 mg/kg per day, free base) or saline. […] After implantation of the minipumps, thresholds were assessed daily thereafter to assess the effects of chronic nicotine exposure on reward thresholds. Seven days (exactly seven 24-h periods) after pump insertion, the pumps were removed in order to precipitate the nicotine withdrawal syndrome. ICSS thresholds were measured 12, 18, 24, 36, 48 and 72 h after pump removal. Animals were injected with bupropion (0, 10, 20, 40 mg/kg IP; n=8-11) 30 min prior to the 18-h time point.

In test [2] the test system is male Wistar rats.
From the text: Trials began with an electrical stimulus followed by a 7.5-s response window within which the animal could make a response to receive a second contingent stimulus identical to the initial noncontingent stimulus. A response during this 7.5-s window was considered a positive response, whereas the lack of a response was considered a negative response. Additional responses during a 2-s period immediately following a positive response had no consequence. The intertrial interval (ITI) that followed either a positive response or the end of the response window (in the case of a negative response) ranged from 7.5 to 12.5 s with an average duration of 10 s. […] Subjects then were tested on a current-threshold procedure in which stimulus intensities were varied during four alternating descending and ascending series with a step size of 5 mA. Blocks of three trials were offered at each current step with the starting current of the first descending series set at 30-40 mA above the subjects' individual baseline thresholds estimated at the end of preliminary training. […] An ascending series was terminated after two consecutive blocks of trials during which the animal made positive responses on at least two out of the three trials or after 15 successive increments were presented. The mean of the four current thresholds from the alternating series was defined as the subject's ICSS threshold for that session. A series was terminated after either 15 stimulus increments (or decrements) had occurred, or after the determination of the threshold for the series (see below). Each test session typically lasted 30 min.
For the next test, the target named is T1, dopamine transporter (Homo sapiens, UniProt Q01959).
T1 construct: host or cells: living human brain (in vivo imaging)
The following applies: therapeutically effective doses, humans (Meyer et al. 2002); cited from earlier work.

Test [3] concerns male Wistar rats. As to the kind of experiment: ICSS reward thresholds under baseline conditions, bupropion. The class given is in vivo, rat. The following applies: bupropion 10-60 mg/kg IP, all doses tested, dose-dependent up to 40 mg/kg. How it is done:
For each quarter turn, subjects received a 500 ms train of 0.1 ms cathodal square wave pulses at a frequency of 100 Hz. After successful acquisition of the response, defined as 200 consecutive reinforcements within allotted time period (usually <20 min) subjects were trained on a modification of the Kornetsky and Esposito discrete-trial currentthreshold procedure (Kornetsky and Esposito 1979), as described previously by Markou and Koob (1992).
Trials began with an electrical stimulus followed by a 7.5-s response window within which the animal could make a response to receive a second contingent stimulus identical to the initial noncontingent stimulus. A response during this 7.5-s window was considered a positive response, whereas the lack of a response was considered a negative response. Additional responses during a 2-s period immediately following a positive response had no consequence. The intertrial interval (ITI) that followed either a positive response or the end of the response window (in the case of a negative response) ranged from 7.5 to 12.5 s with an average duration of 10 s. […] Subjects then were tested on a current-threshold procedure in which stimulus intensities were varied during four alternating descending and ascending series with a step size of 5 mA. […]

The test system of a further test is rats. The following applies: 28-day treatment, 20 mg/kg (McCarter and Kokkinidis 1988); cited from earlier work.
Test [4] relates to male Wistar rats. As to the kind of experiment: Somatic signs of the nicotine withdrawal syndrome. The class given is in vivo, rat. To be noted: for total number of somatic signs: 24 h post pump removal, 12.5 h postbupropion. How it is done: Rats were placed individually in transparent plastic cylindrical containers (30×38 cm) in which they could move freely. Subjects were habituated to the containers for 10 min each day over 3 days before the first test session. During the test sessions the rats were observed blindly by an experienced observer for 10 min and the frequency of the following signs was recorded based on a checklist of nicotine abstinence signs (Hildebrand et al. 1999; Watkins et al. 2000; Malin 2001): body shakes, chews, cheek tremors, escape attempts, eye blinks, foot licks, gasps, genital licks, head shakes, ptosis, scratches, teeth chattering, writhes and yawns. Multiple successive counts of any sign required a distinct pause between episodes. Ptosis, if present continuously, was only counted once per minute. For statistical analyses, the total number of somatic signs was defined as the sum of individual occurrences of the above mentioned withdrawal signs. Further, the categories of “abdominal constrictions” included gasps and writhes; “facial fasciculation” included cheek tremors, chews, and teeth chattering; and “miscellaneous other signs” included shakes, escape attempts, licks, scratches, and yawns.
Separate drug-naive rats were prepared with osmotic minipumps containing nicotine (3.16 mg/kg per day for 7 days) dissolved in saline. […] Further, this nicotine dose was selected to allow direct comparison of the effects of bupropion on somatic signs (present experiment 4) and on reward threshold elevations (experiment 3 described above) observed during nicotine withdrawal. To induce the somatic signs of nicotine withdrawal the minipumps were removed 6 days and 18 h after implantation. The behavioral observations were conducted 6, 12 and 24 h after the removal of the minipumps. The rats were injected with bupropion (0, 5, 10, 20, 40 mg/kg, IP; n=6-8), 30 min prior to the 12-h time point. The selection of the time points was based on the time-course of the expression of the somatic signs after the termination of nicotine exposure (Epping-Jordan et al. 1998; Harrison et al. 2001a; Semenova and Markou 2003; Skjei and Markou 2003).

T1 sequence (Q01959 whole entry): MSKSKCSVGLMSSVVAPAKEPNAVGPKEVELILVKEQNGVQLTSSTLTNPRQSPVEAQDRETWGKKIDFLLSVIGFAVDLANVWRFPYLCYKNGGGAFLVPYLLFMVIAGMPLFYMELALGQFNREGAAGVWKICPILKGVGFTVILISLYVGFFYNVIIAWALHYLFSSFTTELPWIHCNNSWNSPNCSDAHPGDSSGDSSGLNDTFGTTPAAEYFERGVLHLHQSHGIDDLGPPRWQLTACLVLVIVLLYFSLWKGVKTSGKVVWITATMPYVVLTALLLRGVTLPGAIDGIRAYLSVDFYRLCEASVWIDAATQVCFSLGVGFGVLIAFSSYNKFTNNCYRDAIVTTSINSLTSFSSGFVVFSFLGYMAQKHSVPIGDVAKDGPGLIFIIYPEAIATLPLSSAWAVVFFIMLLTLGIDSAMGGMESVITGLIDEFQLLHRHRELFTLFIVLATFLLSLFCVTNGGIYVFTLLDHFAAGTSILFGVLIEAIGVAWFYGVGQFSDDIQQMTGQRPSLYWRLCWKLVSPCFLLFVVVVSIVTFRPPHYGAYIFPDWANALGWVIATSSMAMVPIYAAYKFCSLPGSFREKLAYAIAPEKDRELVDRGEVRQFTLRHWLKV

For the compound `CC(NC(C)(C)C)C(=O)c1cccc(Cl)c1` (stereo not drawn) [bupropion, Bupropion hydrochloride], the “area under the curve of the threshold data, 72-h withdrawal period” value in the test on male Wistar rats [1] (bupropion 40 mg/kg, nicotine-pretreated animals) is on record as “completely reversed”. Also, the reward thresholds entry in the test with male Wistar rats [1] (bupropion 40 mg/kg, nicotine-pretreated animals, 24 h time point) was “still exhibited a significant (P<0.001) reduction in reward thresholds”; in the test with male Wistar rats [1] (bupropion 10, 20, 40 mg/kg, thirty minutes after administration (18-h time point), nicotine- or saline-pretreated) it was “significant and dose-dependent lowering of reward thresholds at all doses”. In addition, the reduction in threshold result in the test with male Wistar rats [1] (bupropion, saline pretreated animals, 24 h) was “short-lived and completely reversed at the next time point tested”. The brain reward thresholds result is “without effect on reward thresholds when given alone” in the test on male Wistar rats [2] (bupropion 5 mg/kg alone); “resulted in threshold lowerings that were not significantly different from threshold lowerings induced by nicotine administration alone” in the test with male Wistar rats [2] (bupropion 10 and 20 mg/kg in combination with nicotine 0.25 mg/kg); “lowered brain reward thresholds in animals that were co-treated with saline” in the test on male Wistar rats [2] (bupropion 10 and 20 mg/kg, saline co-treated); “lowered brain reward thresholds compared to the vehicle conditions” in the test with male Wistar rats [3]. In the test on male Wistar rats [2] (bupropion 5 mg/kg with nicotine 0.25 mg/kg), the “reward-enhancing effects of acute nicotine” value is on record as “completely reversed the reward-enhancing effects of acute nicotine”. Also, at dopamine transporter, the “occupancy at the dopamine transporter” value is listed as 22%. The “rate of responding for ICSS” value with rats is “had no effect on the rate of responding for ICSS”. For the same compound, the “long-term effect on somatic signs” value with male Wistar rats [4] (acute bupropion, 12.5 h) is listed as “has no long-term (12.5 h) effect on the expression of the somatic signs of nicotine withdrawal”. Also, the “total number of somatic signs” value in the test with male Wistar rats [4] (bupropion 5 mg/kg) is on record as 18.6±4; in the test on male Wistar rats [4] (bupropion 10 mg/kg) it was 17.1±4.6; in the test with male Wistar rats [4] (bupropion 20 mg/kg), 14.1±2.2; in the test on male Wistar rats [4] (bupropion 40 mg/kg), 14.6±2.6. In addition, in the test with male Wistar rats [4] (bupropion 10-40 mg/kg, 12-h withdrawal time point), the “abdominal constrictions (writhes and gasps)” value was “reversed the withdrawal-induced increase in abdominal constrictions”. For the same compound, the total somatic signs entry in the test on male Wistar rats [4] (bupropion 20-40 mg/kg, 30 min prior to the 12-h withdrawal timepoint) is reported as “resulted in a reversal of the expression of total somatic signs”.
